The source of these data is PMC9959518, “Influence of the Drug Position on Bioactivity in Angiopep-2—Daunomycin Conjugates” (International Journal of Molecular Sciences, 2023).

Data set [1] concerns U87 human glioblastoma cells. In kind it is cell-based. To be noted: MTT test; for IC50: 0.05–50 µM, treated 24 h (method: overnight), washed, further 48 h (method: 72 h) at 37 °C, two independent experiments with four parallel measurements. On the procedure: The in vitro cytostatic effect of the synthesized peptide (1) and daunomycin-peptide conjugates (2–8) was investigated on U87 human glioblastoma cells. The cells were treated with the peptide and conjugates at different concentrations (0.05–50 μM) for 24 h, and after a washing step, the cells were incubated for another […] at 37 °C. The cytostatic effect of the compounds was determined using the MTT test.
U87 human glioblastoma cell line was cultured in DMEM supplemented with 10% FBS, 2 mM L-glutamine, penicillin–streptomycin antibiotic mixture (50 IU/mL and 50 μg/mL, respectively), 1 mM sodium pyruvate, and 1% non-essential amino acid mixture. The cell culture was maintained at 37 °C in a humidified atmosphere with 5% CO2. The U87 cell line was a generous gift of Dr. József Tóvári (Department of Experimental Pharmacology, National Institute of Oncology, Budapest, Hungary).
For determining the cytostatic effect of the conjugates, U87 cells were grown to confluency and then divided into 96-well tissue culture plates with an initial cell number of 5.0 × 10^3 cells/well. After 24 h incubation at 37 °C, the cells were treated with the compounds overnight in the concentration range of 0.05–50 μM in 200 μL final volume containing 1.0 v/v% DMSO, whereas control cells were treated only with serum-free medium or with 1.0 v/v% DMSO at the same conditions. After the incubation, cells were washed twice with serum-free medium, then the cells were cultured for an additional 72 h in 10% serum-containing medium at 37 °C. Following that, MTT solution (at c = 0.37 mg/mL final concentration) was added to each well. The respiratory chain [32] and other electron transport systems reduced MTT and thereby formed non-water-soluble violet formazan crystals within the cells. The amount of these crystals can be determined by spectrophotometry and serves as an estimate for the number of mitochondria in addition to the number of living cells in the well [35]. After 3 h of incubation with MTT, the cells were centrifuged for 5 min at 2000 rpm and the supernatant was removed. The obtained formazan crystals were dissolved in DMSO (100 µL), and the optical density (OD) of the samples was measured at λ = 540 nm and 620 nm, respectively, using ELISA Reader (iEMS Reader, Labsystems, Finland). The OD620 values were subtracted from the OD540 values. The percent of cytostasis was calculated with the following equation:(1) Cytostatic effect (%)=1−ODtreated/ODcontrol×100 where the ODtreated and ODcontrol values correspond to the optical densities of the treated and the control wells, respectively. In each case, two independent experiments were carried out with four parallel measurements. Cytostasis was plotted as a function of concentration, and the half-maximal inhibitory concentration was calculated based on a sigmoid curve fitted on the data points using Microcal™ Origin 2018 software. IC50 represents the concentration of a compound that is required for 50% inhibition, expressed in micromolar units.

Data set [2] in a line: Degradation in rat liver lysosomal homogenate followed by HPLC-MS. In kind it is in vitro ADME. How it is done: The conjugates were treated with lysosomal homogenate for 5 min, 1 h, 6 h, 24 h, and 72 h, and the degradation was followed by HPLC-MS. Control studies investigating conjugates in buffer (without lysosomal homogenate) were also performed, and for these, all conjugates were stable. […] At 6 h, it was the main drug-containing metabolite, and at 72 h, only this Dau-containing fragment could be detected. This time-dependent pattern was also observed in the case of conjugate 2, where Dau was attached to the side chain of Lys in position 15, and the formed smallest metabolite was H-Lys(Dau=Aoa)-OH. […] It is likely that, in this case, a large steric hindrance occurred, and the enzymes were not able to access the peptide bonds around ^10Lys. This observation might explain the discrepancy between the efficient cellular uptake and the lower anticancer activity of this conjugate.
A stock solution with a concentration of 2.5 μg/μL was prepared from the conjugates in distilled water, and this was diluted 100× with 0.2 M sodium acetate buffer (pH 5.03). The rat liver lysosomal homogenate (16.6 μg/μL) was diluted 20× with the same buffer, and then the two solutions were mixed in a 1:1 (protein:peptide, m/m) ratio. In each case, control measurements were also performed, in which buffer was added to the conjugates instead of the lysosomal homogenate. The solutions were stirred at 600 rpm at 37 °C in a thermostat (ThermoMixer, Eppendorf AG, Hamburg, Germany), and after 5 min, 1 h, 6 h, 24 h, and 72 h, 50 μL samples were taken. Each reaction was quenched with 5 μL formic acid and the samples were stored frozen until analysis.
The HPLC-MS analysis of the samples was performed with a Dionex 3000 HPLC-Q Exactive Focus hybrid quadrupole-orbitrap mass spectrometer (Thermo Fisher Scientific, Bremen, Germany). For separation, a Supelco Ascentis C18 column (3 μm, 100 Å, 150 × 2.1 mm; Merck, Darmstadt, Germany) and gradient elution (0 min 2% B, 1 min 2% B, 17 min 90% B; A eluent: 0.1% formic acid/distilled water, eluent B: 0.1% formic acid/acetonitrile + distilled water (80:20, v/v%), flow rate 0.2 mL/min, 40 °C) was used, and high-resolution mass spectra were recorded in the range of 200–1800 m/z. The data were analyzed using the Xcalibur program (Thermo Fisher Scientific).

Take `COc1cccc2c1C(=O)c1c(O)c3c(c(O)c1C2=O)C[C@@](O)(C(C)=NOCC(=O)N[C@H](C(=O)N[C@@H](C)C(=O)NCCCC[C@H](NC(=O)CNC(=O)[C@H](CCCNC(=N)N)NC(=O)[C@H](CO)NC(=O)CNC(=O)CNC(=O)[C@H](Cc1ccc(O)cc1)NC(=O)[C@H](Cc1ccccc1)NC(=O)[C@H](Cc1ccccc1)NC(=O)[C@@H](N)[C@@H](C)O)C(=O)N[C@@H](CCCNC(=N)N)C(=O)N[C@@H](CC(N)=O)C(=O)N[C@@H](CC(N)=O)C(=O)N[C@@H](Cc1ccccc1)C(=O)N[C@@H](CCCCN)C(=O)N[C@H](C(=O)N[C@@H](CCC(=O)O)C(=O)N[C@@H](CCC(=O)O)C(=O)N[C@@H](Cc1ccc(O)cc1)C(=O)O)[C@@H](C)O)C(C)C)C[C@@H]3O[C@H]1C[C@H](N)[C@H](O)[C@H](C)O1` [compound 10, H-TFFYGGSRGK(Dau=Aoa-VA)RNNFKTEEY-OH]: the concentration for half-maximal inhibition (IC50) in data set [1] was > 50 µM. Besides, the “amount of H-K(Dau=Aoa-VA)-OH formed” value in data set [2] (pH 5.03, 37 °C) is “very small amounts”. Besides, the “amount of expected metabolite Dau=Aoa-Val-OH produced after 72 h” value in data set [2] (pH 5.03, 37 °C, 72 h) is recorded as “negligible amounts”.
The molecule `COc1cccc2c1C(=O)c1c(O)c3c(c(O)c1C2=O)C[C@@](O)(C(C)=NOCC(=O)N[C@H](C(=O)N[C@@H](Cc1ccccc1)C(=O)N[C@@H](Cc1ccccc1)C(=O)N[C@@H](Cc1ccc(O)cc1)C(=O)NCC(=O)NCC(=O)N[C@@H](CO)C(=O)N[C@@H](CCCNC(=N)N)C(=O)NCC(=O)N[C@@H](CCCCN)C(=O)N[C@@H](CCCNC(=N)N)C(=O)N[C@@H](CC(N)=O)C(=O)N[C@@H](CC(N)=O)C(=O)N[C@@H](Cc1ccccc1)C(=O)N[C@@H](CCCCN)C(=O)N[C@H](C(=O)N[C@@H](CCC(=O)O)C(=O)N[C@@H](CCC(=O)O)C(=O)N[C@@H](Cc1ccc(O)cc1)C(=O)O)[C@@H](C)O)[C@@H](C)O)C[C@@H]3O[C@H]1C[C@H](N)[C@H](O)[C@H](C)O1` [compound 3, Dau=Aoa-TFFYGGSRGKRNNFKTEEY-OH] showed an IC50 in data set [1] of 10.9 ± 2.8 µM. Also, the “time of appearance of the Dau=Aoa-Thr-OH fragment” value in data set [2] (1:1 protein:peptide m/m, 0.2 M sodium acetate pH 5.03, 37 °C) is ≤ 1 h.
Take `C[C@@H](O)[C@H](N)C(=O)N[C@@H](Cc1ccccc1)C(=O)N[C@@H](Cc1ccccc1)C(=O)N[C@@H](Cc1ccc(O)cc1)C(=O)NCC(=O)NCC(=O)N[C@@H](CO)C(=O)N[C@@H](CCCNC(=N)N)C(=O)NCC(=O)N[C@@H](CCCCN)C(=O)N[C@@H](CCCNC(=N)N)C(=O)N[C@@H](CC(N)=O)C(=O)N[C@@H](CC(N)=O)C(=O)N[C@@H](Cc1ccccc1)C(=O)N[C@@H](CCCCN)C(=O)N[C@H](C(=O)N[C@@H](CCC(=O)O)C(=O)N[C@@H](CCC(=O)O)C(=O)N[C@@H](Cc1ccc(O)cc1)C(=O)O)[C@@H](C)O` [compound 1, H-TFFYGGSRGKRNNFKTEEY-OH, reference compound]: the IC50 in data set [1] was > 50 µM. Besides, the “in vitro cytostatic effect (in words)” value in data set [1] (up to 50 µM) is “did not show any effect”.
The molecule `COc1cccc2c1C(=O)c1c(O)c3c(c(O)c1C2=O)C[C@@](O)(C(C)=NOCC(=O)NCCCC[C@H](NC(=O)[C@H](Cc1ccccc1)NC(=O)[C@H](CC(N)=O)NC(=O)[C@H](CC(N)=O)NC(=O)[C@H](CCCNC(=N)N)NC(=O)[C@H](CCCCN)NC(=O)CNC(=O)[C@H](CCCNC(=N)N)NC(=O)[C@H](CO)NC(=O)CNC(=O)CNC(=O)[C@H](Cc1ccc(O)cc1)NC(=O)[C@H](Cc1ccccc1)NC(=O)[C@H](Cc1ccccc1)NC(=O)[C@@H](N)[C@@H](C)O)C(=O)N[C@H](C(=O)N[C@@H](CCC(=O)O)C(=O)N[C@@H](CCC(=O)O)C(=O)N[C@@H](Cc1ccc(O)cc1)C(=O)O)[C@@H](C)O)C[C@@H]3O[C@H]1C[C@H](N)[C@H](O)[C@H](C)O1` [compound 2, H-TFFYGGSRGKRNNFK(Dau=Aoa)TEEY-OH] returned an IC50 in data set [1] of 30.2 ± 6.4 µM.
Molecule `COc1cccc2c1C(=O)c1c(O)c3c(c(O)c1C2=O)C[C@@](O)(C(C)=NOCC(=O)NCCCC[C@H](NC(=O)CNC(=O)[C@H](CCCNC(=N)N)NC(=O)[C@H](CO)NC(=O)CNC(=O)CNC(=O)[C@H](Cc1ccc(O)cc1)NC(=O)[C@H](Cc1ccccc1)NC(=O)[C@H](Cc1ccccc1)NC(=O)[C@@H](N)[C@@H](C)O)C(=O)N[C@@H](CCCNC(=N)N)C(=O)N[C@@H](CC(N)=O)C(=O)N[C@@H](CC(N)=O)C(=O)N[C@@H](Cc1ccccc1)C(=O)N[C@@H](CCCCNC(=O)CON=C(C)[C@]1(O)Cc2c(O)c4c(c(O)c2[C@@H](O[C@H]2C[C@H](N)[C@H](O)[C@H](C)O2)C1)C(=O)c1c(OC)cccc1C4=O)C(=O)N[C@H](C(=O)N[C@@H](CCC(=O)O)C(=O)N[C@@H](CCC(=O)O)C(=O)N[C@@H](Cc1ccc(O)cc1)C(=O)O)[C@@H](C)O)C[C@@H]3O[C@H]1C[C@H](N)[C@H](O)[C@H](C)O1` [compound 6, H-TFFYGGSRGK(Dau=Aoa)RNNFK(Dau=Aoa)TEEY-OH] showed an IC50 in data set [1] of 21.6 ± 5.4 µM.
On the same count and under the same terms, as for `COc1cccc2c1C(=O)c1c(O)c3c(c(O)c1C2=O)C[C@@](O)(C(C)=NOCC(=O)NCCCC[C@H](NC(=O)[C@H](Cc1ccccc1)NC(=O)[C@H](CC(N)=O)NC(=O)[C@H](CC(N)=O)NC(=O)[C@H](CCCNC(=N)N)NC(=O)[C@H](CCCCN)NC(=O)CNC(=O)[C@H](CCCNC(=N)N)NC(=O)[C@H](CO)NC(=O)CNC(=O)CNC(=O)[C@H](Cc1ccc(O)cc1)NC(=O)[C@H](Cc1ccccc1)NC(=O)[C@H](Cc1ccccc1)NC(=O)[C@@H](NC(=O)CON=C(C)[C@]1(O)Cc2c(O)c4c(c(O)c2[C@@H](O[C@H]2C[C@H](N)[C@H](O)[C@H](C)O2)C1)C(=O)c1c(OC)cccc1C4=O)[C@@H](C)O)C(=O)N[C@H](C(=O)N[C@@H](CCC(=O)O)C(=O)N[C@@H](CCC(=O)O)C(=O)N[C@@H](Cc1ccc(O)cc1)C(=O)O)[C@@H](C)O)C[C@@H]3O[C@H]1C[C@H](N)[C@H](O)[C@H](C)O1` [compound 5, Dau=Aoa-TFFYGGSRGKRNNFK(Dau=Aoa)TEEY-OH], the figure is 32.3 ± 8.1 µM; as for `COc1cccc2c1C(=O)c1c(O)c3c(c(O)c1C2=O)C[C@@](O)(C(C)=NOCC(=O)NCCCC[C@H](NC(=O)CNC(=O)[C@H](CCCNC(=N)N)NC(=O)[C@H](CO)NC(=O)CNC(=O)CNC(=O)[C@H](Cc1ccc(O)cc1)NC(=O)[C@H](Cc1ccccc1)NC(=O)[C@H](Cc1ccccc1)NC(=O)[C@@H](NC(=O)CON=C(C)[C@]1(O)Cc2c(O)c4c(c(O)c2[C@@H](O[C@H]2C[C@H](N)[C@H](O)[C@H](C)O2)C1)C(=O)c1c(OC)cccc1C4=O)[C@@H](C)O)C(=O)N[C@@H](CCCNC(=N)N)C(=O)N[C@@H](CC(N)=O)C(=O)N[C@@H](CC(N)=O)C(=O)N[C@@H](Cc1ccccc1)C(=O)N[C@@H](CCCCNC(=O)CON=C(C)[C@]1(O)Cc2c(O)c4c(c(O)c2[C@@H](O[C@H]2C[C@H](N)[C@H](O)[C@H](C)O2)C1)C(=O)c1c(OC)cccc1C4=O)C(=O)N[C@H](C(=O)N[C@@H](CCC(=O)O)C(=O)N[C@@H](CCC(=O)O)C(=O)N[C@@H](Cc1ccc(O)cc1)C(=O)O)[C@@H](C)O)C[C@@H]3O[C@H]1C[C@H](N)[C@H](O)[C@H](C)O1` [compound 8, Dau=Aoa-TFFYGGSRGK(Dau=Aoa)RNNFK(Dau=Aoa)TEEY-OH], 23.6 ± 6.3 µM.
